Read-outs that look alike come from different tables or passages of the source.
How the values were obtained:
[1] = system: patients with ALS
Excerpt: Non-limiting examples of measures of clinical response include the ALS Functional Rating Scale Revised (ALSFRS-R) and respiratory vital capacity.
Stem cell reprogramming for long term disease regulation is evidenced by finding normalization of biomarkers for at least one month after the last dose in the 6-month administration procedure.
A major subset of ALS patients show evidence for ongoing inflammation that potentially contributes to disease progression.

[2] = system: CD 34+ HSCs; conditions: LPS-activated HSC (10 ng/mL LPS overnight), single treatment with NP001 300 μM, grown 3 days, RNAseq
Method: CD 34+ HSCs were isolated from normal human adult bone marrow (>95% pure) and were either stimulated by 10 ng/mL LPS overnight or control medium. NP001 was added (300 μM; equivalent to phase 2 dose in humans) to washed HSC controls and LPS-activated HSC and the cells grown for 3 days in HSC medium. RNAseq with 100 M reads was performed on all cells and pathway analysis was performed.
By comparison with non-LPS-activated cells, LPS-activated pathways with p<10-15 were defined. […] NP001-treated, LPS-activated HSC gene expression pathways were evaluated in parallel. […] In addition, LPS-activated HSC were evaluated for factors (e.g., protein and genes), that were modulated following treatment with NP001.

[3] = ALS patients with plasma CRP levels >1.13 mg/L
[4] = clinical responders, 6-month pulse therapy, at least one month after last dose
[5] = mechanism of action studies in patients with ALS

Substance: sodium chlorite [NP001]
- disease progression [1, 3]: slowing disease progression
- innate immune function [1, 3]: restore innate immune function
- plasma epidermal growth factor (EGF), long term change [1, 4]: upregulation
- plasma hepatocyte growth factor (HGF), long term change [1, 4]: downregulation
- plasma interleukin-10 (IL-10), long term change [1, 4]: upregulation
- plasma interleukin-18 (IL-18), long term change [1, 4]: downregulation
- plasma lipopolysaccharide (LPS), long term change [1, 4]: downregulation
- plasma lipopolysaccharide binding protein (LBP), long term change [1, 4]: downregulation
- plasma neopterin, long term change [1, 4]: upregulation
- plasma soluble CD163 (sCD163), long term change [1, 4]: downregulation
- 8 biomarkers associated with microbial translocation ([1]; intermittent dosing (3 days/month), patients whose disease slowed): prolonged regulation
- disease progression [1, 5]: slowing disease progression
- innate immune function [1, 5]: restore innate immune function
- HSC gene expression pathways stimulated by LPS [2]: reversed

Reference: patent US20250114396A1, “CHLORITE USES FOR STEM CELLS” (The Regents of the University of California, priority 2023, published 2025)
